From paper PMC11213934, “Allosteric modulators of M1 muscarinic receptors enhance acetylcholine efficacy and decrease locomotor activity and turning behaviors in zebrafish” (Scientific Reports, 2024) come the findings set out here.

Entries after “also recorded” stand apart in the source; their conditions may differ. Marks after values point to notes of the source that are not given here.

The test system of data set [1] is wild-type (AB) zebrafish (Danio rerio). Put plainly: Maximum tolerated concentration (MTC) determination in larval zebrafish. It counts as in vivo. Particulars: after 24 h exposure; 5 dpf larvae. The procedure:
(§1) Larval zebrafish were produced in the University of Toledo zebrafish core facility and housed in an incubator maintained at 28 °C on a 14:10 h cycle. Fish were acclimated to the testing room conditions the evening prior to testing. All testing took place during the 14 h light cycle after the lights had been on for at least 2 h.
Determination of maximum tolerated concentration (adapted from Berghmans)[52] was completed by placing 5 days post fertilization (dpf) wild-type zebrafish larvae in a 24 well plate at 6 fish per well, and one compound concentration per well. […] Death was determined by the absence of heartbeat. Additional endpoints were used to assess toxicity at non-lethal concentrations such as startle capacity (poke stimulus), abnormalities in swimming behavior (loss of dorsoventral balance), and gross morphological deformities (bent body). […] The MTC determination was used to select three doses of each compound (low, medium, high dose) to be used in behavioral assays.

The target of data set [2] is T1, human M1 muscarinic receptors (Homo sapiens, UniProt P11229).
T1 sequence (P11229 1-460): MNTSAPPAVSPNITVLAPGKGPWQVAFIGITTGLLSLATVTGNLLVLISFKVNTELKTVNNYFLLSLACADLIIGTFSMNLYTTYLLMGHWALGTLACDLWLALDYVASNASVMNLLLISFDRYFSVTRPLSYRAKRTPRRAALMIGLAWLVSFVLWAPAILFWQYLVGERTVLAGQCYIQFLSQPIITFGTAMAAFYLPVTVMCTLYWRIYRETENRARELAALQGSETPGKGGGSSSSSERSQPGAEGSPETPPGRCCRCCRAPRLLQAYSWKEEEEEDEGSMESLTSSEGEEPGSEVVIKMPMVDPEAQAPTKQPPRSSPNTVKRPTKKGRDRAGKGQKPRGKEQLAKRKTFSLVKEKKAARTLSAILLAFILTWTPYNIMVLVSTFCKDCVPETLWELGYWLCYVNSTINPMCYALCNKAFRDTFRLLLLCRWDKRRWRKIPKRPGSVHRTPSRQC
Put plainly: [3H]-arachidonic acid release in CHO cells expressing M1 receptors, with and without ACh (single modulator concentration, four-parameter curves). The format is cell-based. Details: expressed in transfected cells; host or cells: CHO cells stably transfected with hM1, obtained from Mark Brann's laboratory (NIH). As to conditions: for 0.1 µM ACh: response with modulator present divided by response to ACh alone / 100 µM ACh: response with modulator present divided by response to ACh alone / No ACh: agonist effect of the allosteric ligand by itself, fraction of the maximal response that could be elicited by ACh: modulator 10 µM, CHO-hM1, mean ± s.e.m.; for No ACh: agonist effect of the allosteric ligand by itself, fraction of the maximal response that could be elicited by ACh: at least 4 determinations; for Effect on M1 receptor activity and ACh response, in words: modulators at 10 µM (amiodarone 30 µM). On the procedure:
CHO cells expressing human M1 muscarinic receptors were cultured at 37 °C in a 5% CO2 atmosphere in F12 medium supplemented with 5% fetal bovine serum, 100 units/ml penicillin, and 100 µg/ml streptomycin. These cells were obtained from Mark Brann’s laboratory when they were at NIH and have been in use by us and others for many years.
Measurement of [^3H]AA release was performed as described in Stahl and Ellis[24]. Stably transfected CHO-hM1 cells were seeded on 24-well plates (Greiner Bio-One GmbH, Frickenhausen, Germany) at a density of 5.0 × 10^4 cells/well in 0.5 ml of F-12 medium. Cells were incubated until they attached (approximately 3 h), followed by the addition of [^3H]AA to a final concentration of 0.05 μCi of [^3H]AA per well. The cells were then grown for 16 to 20 h before the assay was performed. [^3H]AA release was measured in Eagle’s basal medium with 20 mM HEPES and 2 mg/ml fatty acid-free bovine serum albumin (EM-BSA). Cells were rinsed twice with EM-BSA, followed by the addition of EM-BSA media containing experimental agents and incubated for 1 h at 37 °C. The assay was terminated by aspiration of the media, and the amount of [^3H]AA released was determined by liquid scintillation counting (Beckman-Coulter LS6500).
Where indicated (Fig. 2), cells were pretreated with POB to reduce the number of available receptors per cell. Stock POB was made up at 10 mM in ethanol and stored at −20C. Each well was pretreated with 0.5 ml of the appropriate concentration in PBS with 1 mM CaCl2 and 1 mM MgCl2 (PBS+ +) for 30 min at 37 °C, followed by 5 washes with PBS+ + . After pretreatment, the normal protocol follows as above.
Tabulated [^3H]AA release data are represented as a fraction of maximal release elicited by ACh or as the fraction of release elicited by the relevant concentration of ACh alone, as indicated. Dose-response curves were normalized to the maximal response of ACh without allosteric ligand. Where indicated, response curves were analyzed using the empirical four-parameter equation: Y=Top+Bottom-Top/1+X/C50^n where X is the concentration of the ligand used, Y is the amount of response, C50 is the concentration of the ligand that produces 50% of the maximal effect, Top and Bottom are the top and bottom plateaus of the curve, and n is related to the Hill slope for the curve. Where indicated, families of response curves were analyzed according to an allosteric operational model[50],[51]: Y=EM[τAA(KB+αβB)+τBBKA]/[τAA(KB+αβB)+τBBKA+AKB+KAKB+KAB+αAB] where EM is the maximal response; A is the concentration of ACh; B is the concentration of the allosteric ligand; τA and τB represent the operational efficacies of A and B, respectively; KA and KB are the equilibrium dissociation constants of A and B; and α and β represent the cooperativities between A and B in terms of binding and activation, respectively. Curve-fitting was carried out with GraphPad Prism, version 5.0 or 6.0 (San Diego CA).

Data set [3] deals with wild-type (AB) zebrafish (Danio rerio). Nature of the data set: animal or person. As to conditions: for Distance moved / Variance turn angle: compound at 10 µM relative to controls, mean ± s.e.m., N = 12; for MEC: locomotor behaviors. The format is in vivo. On the procedure: as §1
The movement of larval zebrafish was monitored with the Noldus behavior recording system (Noldus Information Technology, Leesburg VA) and quantified using EthoVision® XT 15 software (Noldus Information Technology, Leesburg VA). Five-dpf zebrafish larvae were exposed to a range of nonlethal concentrations of compounds in a 24-well plate with appropriate controls. The plate was immediately placed in the incubator for a 30-min exposure period. After 30 min, the plate was transferred to the Noldus system and swimming behavior was recorded in 100% light for 30 min to measure spontaneous swimming behavior. The light was switched off for 10 min (dark period) and then switched on for 10 min (light period), which was then repeated for two additional cycles. In total, the larvae were exposed to three cycles of alternating 10 min dark and light periods (100% darkness-to-100% light). Each drug challenge was conducted on three separate plates with n = 6 larvae/dose/plate.
Absolute turn angle (TA) and angular velocity provided measures of the extent of turning behavior, while the intra-individual variance of turn angle quantified how consistently (low variance) or inconsistently (high variance) fish turned. A lowered intra-individual variance of turning reflected repeatedly performing the same turning behavior, a stereotypy.
All data for exposure and the behavioral end points were analyzed by one-way ANOVA (factor: drug concentration) followed by a Dunnett’s multiple comparisons test for post hoc significance between drug concentration and control group. Statistically significant differences are noted as follows; *p < 0.05; **p < 0.01; ***p < 0.001.

Data set [4] has the same test system. The format is in vivo. As to conditions: compound at 10 µM relative to controls; mean ± s.e.m., N = 12.

As to `CCN(CC)CCOc1c(Br)cc(CN2C(=O)C(=O)c3ccccc32)cc1Br.Cl` [Compound 8l, 1-(3,5-dibromo-4-(2-(diethylamino)ethoxy)benzyl)indoline-2,3-dione hydrochloride], the “MTC (maximum tolerated concentration)” value in data set [1] came out at 10 µM. Besides, in data set [2], the “0.1 µM ACh: response with modulator present divided by response to ACh alone” value is listed as 0.10 ± 0.07; the “100 µM ACh: response with modulator present divided by response to ACh alone” value is 0.86 ± 0.04; the “No ACh: agonist effect of the allosteric ligand by itself, fraction of the maximal response that could be elicited by ACh” value is recorded as 0.05 ± 0.01; the “Effect on M1 receptor activity and ACh response, in words” value is listed as “only decreased ACh activity; also recorded: decreased ACh potency with little impact on ACh efficacy”. For the same molecule, in data set [3], the Therap. index turned out to be 1, the Distance moved is listed as 33.5 ± 4.4** %, the Variance turn angle was 166.1 ± 12.5*** % and the MEC was found to be 10 µM. The molecule also had an Angular velocity in data set [4] of 184.7 ± 17.0 %.

With `CCCCc1oc2ccc(NS(C)(=O)=O)cc2c1C(=O)c1ccc(OCCCN(CCCC)CCCC)cc1` [Dronedarone, reference compound], the “MTC (maximum tolerated concentration)” value in data set [1] worked out at 10 µM. For the same molecule, in data set [2], the “0.1 µM ACh: response with modulator present divided by response to ACh alone” value came out at 0.25 ± 0.05; the “100 µM ACh: response with modulator present divided by response to ACh alone” value turned out to be 0.75 ± 0.07; the “No ACh: agonist effect of the allosteric ligand by itself, fraction of the maximal response that could be elicited by ACh” value is 0.08 ± 0.01. Besides, in data set [3], the Therap. index came to 1, the Distance moved is recorded as 28.3 ± 5.3*** %, the Variance turn angle is listed as 141.6 ± 12.5*** % and the MEC was 10 µM. The molecule further showed an Angular velocity in data set [4] of 172.8 ± 25.7 %.

`COc1c(Cl)cc(CN2C(=O)C(=O)c3ccccc32)cc1Cl` [Compound 8e, 1-(3,5-dichloro-4-methoxybenzyl)indoline-2,3-dione]: the “MTC (maximum tolerated concentration)” value in data set [1] is 100 µM. In data set [2], the “0.1 µM ACh: response with modulator present divided by response to ACh alone” value is 2.29 ± 0.14; the “100 µM ACh: response with modulator present divided by response to ACh alone” value is given as 1.21 ± 0.07; the “No ACh: agonist effect of the allosteric ligand by itself, fraction of the maximal response that could be elicited by ACh” value is listed as 0.13 ± 0.04. For the same molecule, in data set [3], the Therap. index was 100, the Distance moved is recorded as 29.1 ± 5.3*** %, the Variance turn angle is 158.8 ± 14.3*** % and the MEC turned out to be 1 µM. Also, in data set [4], the Angular velocity was 222.1 ± 25.0 %.

For the molecule `COc1ccc(CN2C(=O)C(=O)c3ccccc32)cc1Br` [Compound 8d, 1-(3-bromo-4-methoxybenzyl)indoline-2,3-dione], the “MTC (maximum tolerated concentration)” value in data set [1] is 100 µM. In addition, in data set [2], the “0.1 µM ACh: response with modulator present divided by response to ACh alone” value was determined as 1.57 ± 0.06; the “100 µM ACh: response with modulator present divided by response to ACh alone” value was determined as 0.90 ± 0.03; the “No ACh: agonist effect of the allosteric ligand by itself, fraction of the maximal response that could be elicited by ACh” value was found to be 0.04 ± 0.01. In data set [3], the Therap. index stood at 100, the Distance moved is on record as 38.4 ± 4.5*** %, the Variance turn angle is 170.2 ± 15.1*** % and the MEC turned out to be 1 µM. In data set [4], this molecule returned an Angular velocity of 201.4 ± 27.5 %.

`O=C1C(=O)N(Cc2cc(F)c(F)c(F)c2)c2ccccc21` [Compound 8i, 1-(3,4,5-trifluorobenzyl)indoline-2,3-dione]: in data set [1], the “MTC (maximum tolerated concentration)” value amounted to 10 µM. Moreover, in data set [2], the “0.1 µM ACh: response with modulator present divided by response to ACh alone” value is listed as 1.47 ± 0.12; the “100 µM ACh: response with modulator present divided by response to ACh alone” value was found to be 1.04 ± 0.02; the “No ACh: agonist effect of the allosteric ligand by itself, fraction of the maximal response that could be elicited by ACh” value was found to be 0.06 ± 0.01. In addition, in data set [3], the Therap. index came to 10, the Distance moved was 11.6 ± 1.2*** %, the Variance turn angle was 146.1 ± 16.1** % and the MEC is on record as 1 µM. The Angular velocity in data set [4] is on record as 412.1 ± 28.7 %.

For `COc1c(F)cc(CN2C(=O)C(=O)c3ccccc32)cc1F` [Compound 8g, 1-(3,5-difluoro-4-methoxybenzyl)indoline-2,3-dione], the “MTC (maximum tolerated concentration)” value in data set [1] is given as 30 µM. In data set [2], the “0.1 µM ACh: response with modulator present divided by response to ACh alone” value is recorded as 1.41 ± 0.13; the “100 µM ACh: response with modulator present divided by response to ACh alone” value came to 0.95 ± 0.05; the “No ACh: agonist effect of the allosteric ligand by itself, fraction of the maximal response that could be elicited by ACh” value is on record as 0.03 ± 0.01. For the same molecule, in data set [3], the Therap. index is recorded as 30, the Distance moved is recorded as 65.7 ± 11.7*** %, the Variance turn angle is 126.5 ± 10.4* % and the MEC stood at 1 µM. In addition, the Angular velocity in data set [4] was determined as 144.5 ± 18.6 %.

`CCCCc1oc2ccccc2c1C(=O)c1ccc(OC)cc1` [Compound 6a, (2-butylbenzofuran-3-yl)(4-methoxyphenyl)methanone]: the “MTC (maximum tolerated concentration)” value in data set [1] is 3 µM. Further, in data set [2], the “0.1 µM ACh: response with modulator present divided by response to ACh alone” value was 1.37 ± 0.07; the “100 µM ACh: response with modulator present divided by response to ACh alone” value was found to be 1.06 ± 0.04; the “No ACh: agonist effect of the allosteric ligand by itself, fraction of the maximal response that could be elicited by ACh” value came to 0.05 ± 0.01; the “Effect on M1 receptor activity and ACh response, in words” value is “inactive”. Also, in data set [3], the Distance moved is listed as 115.4 ± 11.7%, the Variance turn angle is listed as 115.8 ± 13.0% and the MEC is recorded as over 3 µM. The molecule also had an Angular velocity in data set [4] of 95.9 ± 13.3%.
